Experimental findings from patent US5059624A, “Guanidine derivatives having hypotensive activity, composition containing them and process for obtaining them” (Consiglio Nazionale Delle Ricerche, priority 1988, dated 1991) are described below.

For this assay, the system named is male Wistar rats. Description: Comparison with known active ingredients in male Wistar rats under sodium thiopental anaesthesia, rapid i.v. or 5 min infusion. In kind it is in vivo, rat (male Wistar). Here is the method: In order to compare the activity of the compounds of the present invention to that of the products of the prior art, various doses of known anti-hypertensive, hypotensive and vasoactive drugs were administered to male Wistar rats under general anaesthesia by sodium thiopental (50 mg/kg, i.p.). The administration was effected through "rapid" i.v. route or through intravenous infusion (inf.) for a time of 5 minutes.
The dose of each product is referred to the base, and the volumes injected were of 100 mcl in case of i.v. administration and […] total (0.9% sodium chloride solution) in case of infusion. The various parameters were evaluated in the same way as in the preceding experiments.

[1] abbreviates: 5 mcg/kg, i.v., maximum response.
[2] abbreviates: 0.75 mcg/kg, i.v., maximum response.
The mark [3] stands for this setting: 2.5 mg/kg, i.v., maximum response.

Where a SMILES comes first, the peptide text is derived from it.

On to `NCCc1c[nH]c2ccc(O)cc12` [5-hydroxytriptamine], for which, under setting [1], the “Δ AP DIASTOLIC” value is on record as -39 ± 2 mmHg, the “Δ AP SYSTOLIC” value is given as -37 ± 3 mmHg, the “Δ HR” value is recorded as -12 ± 3 beats/min and the Δ dp/dt is recorded as -1410 ± 167 mmHg/sec.
As to `NC(N)=NCCC[C@H](NC(=O)[C@H](Cc1ccccc1)NC(=O)[C@@H]1CCCN1C(=O)[C@H](CO)NC(=O)[C@H](Cc1ccccc1)NC(=O)CNC(=O)[C@@H]1CCCN1C(=O)[C@@H]1CCCN1C(=O)[C@@H](N)CCCN=C(N)N)C(=O)O` [Bradykinin] (H-RPPGFSPFR-OH), under setting [2], the “Δ AP DIASTOLIC” value is on record as -18 ± 4 mmHg, the “Δ AP SYSTOLIC” value is given as -18 ± 3 mmHg, the “Δ HR” value was -11 ± 2 beats/min and the Δ dp/dt is reported as -830 ± 124 mmHg/sec.
As for `Clc1cccc(Cl)c1N=C1NCCN1` [Clonidine], under “rat, in vivo”, the “general effects on the various haemodynamic parameters (in words)” value is given as “general "depressive" effects”, the “Δ AP DIASTOLIC” value is -9 ± 1 mmHg, the “Δ AP SYSTOLIC” value is listed as -15 ± 4 mmHg and the “Δ HR” value was -40 ± 8 beats/min. Moreover, the Δ dp/dt (rat, in vivo) is reported as -871 ± 74.
With `N=C(N)NCCN1CCCCCCC1` [Guanetidine], where the note is “rat, in vivo”, the “Δ HR” value is on record as -18 ± 6 beats/min and the Δ dp/dt is -863 ± 160.
In the case of `C[N+](C)(C)CCCCCC[N+](C)(C)C` [Hexameton], under setting [3], the “Δ AP DIASTOLIC” value is on record as -34 ± 2 mmHg, the “Δ AP SYSTOLIC” value was -44 ± 2 mmHg, the “Δ HR” value was -48 ± 9 beats/min and the Δ dp/dt is -4040 ± 812 mmHg/sec.
